Experimental data: paper PMC8348236, “Improving the Utility of a Dynorphin Peptide Analogue Using Mannosylated Glycoliposomes” (International Journal of Molecular Sciences, 2021)

Tests used:
[1] = peptide without delivery system; cited from earlier work
Source text: Initially, the ability of DS1 and DS2 to entrap and protect dynantin from proteolytic degradation in human plasma ex vivo was compared (Figure 3A).

KOR [2] = molecular target: T1, KOR (Mus musculus, UniProt P33534); assay: In vivo striatal dopamine modulation after intranasal administration; settings: female BALB/c mice, 2.0 µg dynantin, 20 min after administration, LC/MS, average ± SD of 5 mice
Procedure: The ability of the glycoliposome delivery systems to improve both the delivery and activity of dynantin in the brain was studied in an in vivo mouse model. Female BALB/c mice (5 per group) were intranasally administered dynantin (2.0 µg dose) alone or entrapped in either DS1 or DS2. Mice were sacrificed 20 min later and blood (sera), lungs and brains were collected. […] Striatum tissue was immediately removed and neurotransmitter levels analyzed by LC/MS.
Dynantin (2.0 µg total dose) was administered intranasally to female BALB/c mice (5 per group) either alone or entrapped with DS1 or DS2 (1:5 ratio of peptide: particles). The mice were euthanized 20 min after administration and the lung, brain, and blood (sera) were collected. Brains were immediately dissected on ice to obtain striatum tissue from which dopamine was extracted and its levels analyzed by LC/MS in the presence of 0.1% formic acid (A). […]
For each mouse, blood was placed in sera tubes, which were spun at 10,000 rpm for 5 min and sera collected. […] The amount of dopamine extracted was analyzed via LC/MS (5 µL injections) and quantified using the dopamine: dopamine-D2 peak area ratio and a standard curve that was generated using increasing concentrations of dopamine in the presence of a set concentration of the dopamine-D2 internal standard. […]

KOR [3] = molecular target: T1, KOR; assay: In vitro dopamine modulation in fresh mouse striatum homogenates; settings: mouse (C57BL/6) striatal homogenate, 90 min, 4 °C in the dark, LC/MS, average ± SD, n = 5, PBS control 0.54 ± 0.07
Procedure: The gently homogenized tissue was treated with either PBS or dynantin at 1 and 10 µM concentrations for 90 min, after which dopamine levels were analyzed.
Striatal tissue was collected from the brains of sacrificed mice (n = 15), gently homogenized and then treated with either PBS (60 µL, n = 5) or dynantin in PBS at a concentration of either 1 µM (60 µL, n = 5) or 10 µM (60 µL, n = 5) for 90 min at 4 °C in the dark. Dopamine was extracted and its levels analyzed by LC/MS in the presence of 0.1% formic acid.
Analyses were performed using an Acquity Class H UPLC system with an Acquity QDa detector (Waters Limited, Mississauga, ON, Canada). Separations took place on an Acquity UPLC BEH C18 column, 1.7 µm, 100 mm × 2.1 mm(Waters Limited, Mississauga, ON, Canada), and were achieved using a binary gradient elution (Table 3) of water and acetonitrile (both with 0.1% formic acid, v/v) and a uniform flow rate of 0.4 mL/min. […]
Male C57BL/6 mice (n = 15) were sacrificed by CO2 asphyxiation and cervical dislocation. […] The amount of dopamine extracted was analyzed via LC/MS (5 µL injections) and quantified using the dopamine: dopamine-D2 peak area ratio and a standard curve that was generated using increasing concentrations of dopamine in the presence of a set concentration of the dopamine-D2 internal standard. […]

in vivo = settings: female, BALB/c, mouse, inhaled or intranasal, 2 ug
[4] = female BALB/c mice, intranasal, 2.0 µg, 20 min; average ± SD of 5 mice

T1 sequence (P33534 whole entry): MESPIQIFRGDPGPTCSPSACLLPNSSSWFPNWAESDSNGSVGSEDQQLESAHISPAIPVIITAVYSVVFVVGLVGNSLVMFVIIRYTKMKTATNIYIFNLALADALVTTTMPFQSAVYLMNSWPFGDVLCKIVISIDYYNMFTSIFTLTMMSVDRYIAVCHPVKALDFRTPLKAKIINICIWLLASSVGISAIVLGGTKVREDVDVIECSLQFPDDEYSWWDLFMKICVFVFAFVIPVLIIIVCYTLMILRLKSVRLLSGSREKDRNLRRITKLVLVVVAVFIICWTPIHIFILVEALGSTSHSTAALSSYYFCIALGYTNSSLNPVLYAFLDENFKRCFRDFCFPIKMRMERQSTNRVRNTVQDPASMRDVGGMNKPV

CC[C@H](C)[C@H](NC(=O)[C@H](CCCNC(=N)N)NC(=O)[C@H](CCCNC(=N)N)NC(=O)[C@H](CC(C)C)NC(=O)[C@H](Cc1ccccc1)NC(=O)CNC(=O)CNC(=O)[C@@H](C)Cc1c(C)cc(O)cc1C)C(=O)N[C@@H](CCCNC(=N)N)C(=O)N1CCC[C@H]1C(=O)N[C@@H](CCCCN)C(N)=O [Dynantin]
time to rapid and complete degradation in human plasma [1]: ≤ 12 h
striatal dopamine level in vivo (KOR [2]): 0.58 ± 0.05 ng/mg
striatal dopamine level, 1 µM dynantin (KOR [3]; 1 µM in PBS): 0.78 ± 0.10 ng/mg
striatal dopamine level, 10 µM dynantin (KOR [3]; 10 µM in PBS): 0.98 ± 0.09 ng/mg
tissue level at time at 20 min (in vivo; brain (remaining tissue after removal of striatum)): 560 ± 200 ng/g
tissue level at time at 20 min (in vivo; lung): 560 ± 120 ng/g
level at 20 min (in vivo; serum): 1300 ± 160 ng/mL
percentage of total dose recovered, Brain [4]: 8.15 ± 3.06%
percentage of total dose recovered, Lung [4]: 4.93 ± 0.89%
percentage of total dose recovered, Sera [4]: 21.66 ± 3.99%
